# Positions of bridges follow the written chain, without caps; N, C: chain ends. Residues, ends and D or L forms follow the SMILES beside them.
# Tests used:
# B16 melanoma = assay: Pre-established subcutaneous B16 melanoma growth in mice, intravenous treatment; assay type: in vivo, mouse
# Protocol: X-axis represents the days after inoculation of 5×10^5 tumor cells. Groups consisted of mice receiving cRAA and cRKD given in six doses of 250 μg through tail vein injection on days 8, 9, 10, 11, 12 and 13 (5 mice in each group, each mice with one tumor). (b) Tumor weight at the end of the experiment (day 14). (c) Dissected tumors at the end of experiment. […] Paraffin sections of B16 tumors were probed for microvascular density (MVD), tumor cell proliferation and apoptosis through immunofluoresence staining using anti-CD31, anti-PCNA and TUNEL staining respectively. (f) Quantification of MVD, cell proliferation and apoptosis. Plots represent the mean of 3 fields per section, 3 sections per tumor and 2 tumors per group. **P<0.01. Error bars denote SEM.
# 4T1 breast carcinoma = assay: Subcutaneous 4T1 breast carcinoma growth in mice, intravenous treatment; assay type: in vivo, mouse
# Protocol: FIG. 13 cRKD peptide inhibits subcutaneous 4T1 breast carcinoma growth in mice when delivered intravenously. (a) 4T1 tumor growth curve in mice. X-axis represents the days after inoculation of 1 million tumor cells. Groups consisted of mice receiving 250 μg cRAA peptide or cRKD peptide through tail vein injection every other day from day 0 (date of inoculation) to 22. N=10. (b) Tumor weight at the end of the experiment (day 22). (c) Dissected tumors at the end of experiment. […] Paraffin sections of 4T1 tumors were probed for microvascular density (MVD), tumor cell proliferation and apoptosis through IF using anti-CD31, anti-PCNA and TUNEL staining respectively. (f) Quantification of MVD, cell proliferation and apoptosis. Plots represent the mean of 3 fields per section, 3 sections per tumor and 2 tumors per group. **P<0.01. Error bars denote SEM. […] Double immunofluorescence staining using anti-CD31 (red) and TUNEL (green) is shown. Nuclei were counter stained by DAPI (blue). Representative photos are shown. Apoptotic EC is indicated by white arrow.
# [1] = anti-CD31, anti-PCNA and TUNEL staining
smiles,measurement,setting,value
"N=C(N)NCCC[C@@H]1NC(=O)[C@@H](N)CSSC[C@@H](C(=O)O)NC(=O)[C@H](CC(=O)O)NC(=O)[C@H](CCCCN)NC1=O [cRKD, Cyclic CRKDC peptide] (H-CRKDC-OH; disulfide 1-5; N-terminus and C-terminus assumed)","tumor angiogenesis, proliferation and apoptosis in pre-established B16 tumor",B16 melanoma; [1],"suppressed tumor angiogenesis, proliferation and induced apoptosis"
same,vascularization of pre-established B16 tumors,B16 melanoma; compared to control,reduced vascularization
same,pre-established B16 tumor growth,B16 melanoma; six doses of 250 μg tail vein on days 8-13,inhibits pre-established subcutaneous B16 melanoma growth
same,4T1 tumor growth,"4T1 breast carcinoma; 250 μg tail vein every other day, day 0 to 22, vs cRAA",suppressed subcutaneous 4T1 breast cancer growth
same,apoptosis of cancer cells and cancer ECs in 4T1 breast carcinoma,4T1 breast carcinoma; CD31/TUNEL double staining,induces apoptosis of both cancer cells and cancer ECs
same,"tumor angiogenesis, proliferation and apoptosis in 4T1 tumor",4T1 breast carcinoma; [1],"suppressed tumor angiogenesis, proliferation and induced apoptosis"
same,vascularization of 4T1 tumors,4T1 breast carcinoma; compared to control,reduced vascularization
same,suppression of breast cancer growth,4T1 breast carcinoma; intravenous injection,75%

# Reference: patent US20160002297A1, “THERAPEUTIC AGENTS” (NATIONAL UNIVERSITY OF SINGAPORE, priority 2013, published 2016)
